In brackets after ≈: the same amount, converted by molar mass. Like-named read-outs stand apart in the source and are kept apart here.
Columns and labels:
[1] = tested on: YEM 27 C. albicans ΔCDR1ΔCDR2 ΔBENΔFLU1; assay: microbe, parasite or virus in culture; type: cell-based; details: YEM 27, 24 hrs, 80% inhibition; for MIC of compound in the presence of fluconazole (+): 1/8 × MIC of fluconazole
[2] = biological target: pBEN (MF) efflux pump in S. cerevisiae YEM-2 (Candida albicans, UniProt P28873); assay: cell-based; type: cell-based, C. albicans
pBEN (MF) efflux pump in S. cerevisiae YEM-2, sequence (P28873 whole entry): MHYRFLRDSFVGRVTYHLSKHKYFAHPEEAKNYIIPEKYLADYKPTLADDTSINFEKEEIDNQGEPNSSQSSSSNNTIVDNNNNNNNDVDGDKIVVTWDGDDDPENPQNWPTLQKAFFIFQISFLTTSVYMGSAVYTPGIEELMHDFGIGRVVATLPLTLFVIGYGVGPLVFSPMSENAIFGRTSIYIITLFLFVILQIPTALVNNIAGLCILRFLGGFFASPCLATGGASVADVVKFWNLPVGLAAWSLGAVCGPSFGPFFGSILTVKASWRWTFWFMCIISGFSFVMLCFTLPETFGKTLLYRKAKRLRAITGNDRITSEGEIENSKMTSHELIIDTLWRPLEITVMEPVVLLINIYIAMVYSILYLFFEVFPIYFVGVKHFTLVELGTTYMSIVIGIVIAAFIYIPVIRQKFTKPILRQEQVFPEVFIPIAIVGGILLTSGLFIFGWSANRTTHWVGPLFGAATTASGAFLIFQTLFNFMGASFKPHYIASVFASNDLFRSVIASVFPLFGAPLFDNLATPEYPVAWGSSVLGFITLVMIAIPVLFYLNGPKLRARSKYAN

[3] = tested on: YEM 17 C. glabrata, CgCDR up; type: cell-based; details: 24 hrs, 80% inhibition; for MIC of compound in the presence of fluconazole (+): 1/8 × MIC of fluconazole
[4] = biological target: pFLU (MF) efflux pump in S. cerevisiae YEM-38 (Candida albicans, UniProt G1UB37); assay: cell-based; type: cell-based, C. albicans
pFLU (MF) efflux pump in S. cerevisiae YEM-38, sequence (G1UB37 whole entry): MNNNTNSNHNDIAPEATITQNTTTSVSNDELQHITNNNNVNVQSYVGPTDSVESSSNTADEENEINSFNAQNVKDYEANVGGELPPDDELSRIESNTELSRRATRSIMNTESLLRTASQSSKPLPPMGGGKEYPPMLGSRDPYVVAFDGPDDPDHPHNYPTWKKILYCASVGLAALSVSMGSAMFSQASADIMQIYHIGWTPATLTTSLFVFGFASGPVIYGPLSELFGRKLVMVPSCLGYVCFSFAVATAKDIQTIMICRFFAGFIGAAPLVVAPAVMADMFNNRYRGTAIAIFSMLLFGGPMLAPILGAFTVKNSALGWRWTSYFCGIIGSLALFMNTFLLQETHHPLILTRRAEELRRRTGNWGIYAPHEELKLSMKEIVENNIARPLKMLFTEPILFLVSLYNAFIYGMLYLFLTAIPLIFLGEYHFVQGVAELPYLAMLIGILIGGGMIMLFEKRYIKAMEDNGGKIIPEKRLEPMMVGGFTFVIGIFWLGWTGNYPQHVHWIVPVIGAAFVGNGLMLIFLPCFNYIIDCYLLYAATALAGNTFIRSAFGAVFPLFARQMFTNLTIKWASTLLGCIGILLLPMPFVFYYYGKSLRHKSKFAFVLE

YEM 51 C. glabrata wt = assay: FEPI MIC with/without 1/8 fluconazole MIC at 24 hrs (Table 11); type: cell-based
YEM 30 C. albicans wt = assay: as above; type: cell-based
YEM 53 C. krusei = assay: as above; type: cell-based
[5] = tested on: YEM 24 C. albicans ΔCDR1, ΔCDR2; assay: microbe, parasite or virus in culture; type: cell-based; details: YEM 24, 24 hrs, 80% inhibition; for MIC of compound in the presence of fluconazole (+): 1/8 × MIC of fluconazole
Aspergillus fumigatus = assay: FEPI MICs in combination with 1/4 the azole's MIC (Table 12); type: cell-based; parameters: FEPI MIC (alone): unit not given here; details: for FEPI MIC with itraconazole, 60% Inh / FEPI MIC with itraconazole, 80% Inh: itraconazole 0.063 μg/ml (1/4 MIC); for FEPI MIC with ketoconazole, 60% Inh / FEPI MIC with ketoconazole, 80% Inh: ketoconazole 4 μg/ml (1/4 MIC); for FEPI MIC (alone): no azole, 35° C., CM Broth
Protocol: The combinations were tested against a series of Candida strain with known expression of efflux pumps or with complete deletion of all known pumps and Aspergillus fumigatus. Results are reported as minimum inhibitory concentration (MIC) of […] in the presence or absence of […]. A total of 27 distinct milbemycins were studied.

[6] = biological target: pCDRI (ABC) efflux pump in S. cerevisiae YEM-1 (Candida albicans, UniProt P43071); assay: cell-based; type: cell-based, C. albicans
pCDRI (ABC) efflux pump in S. cerevisiae YEM-1, sequence (P43071 whole entry): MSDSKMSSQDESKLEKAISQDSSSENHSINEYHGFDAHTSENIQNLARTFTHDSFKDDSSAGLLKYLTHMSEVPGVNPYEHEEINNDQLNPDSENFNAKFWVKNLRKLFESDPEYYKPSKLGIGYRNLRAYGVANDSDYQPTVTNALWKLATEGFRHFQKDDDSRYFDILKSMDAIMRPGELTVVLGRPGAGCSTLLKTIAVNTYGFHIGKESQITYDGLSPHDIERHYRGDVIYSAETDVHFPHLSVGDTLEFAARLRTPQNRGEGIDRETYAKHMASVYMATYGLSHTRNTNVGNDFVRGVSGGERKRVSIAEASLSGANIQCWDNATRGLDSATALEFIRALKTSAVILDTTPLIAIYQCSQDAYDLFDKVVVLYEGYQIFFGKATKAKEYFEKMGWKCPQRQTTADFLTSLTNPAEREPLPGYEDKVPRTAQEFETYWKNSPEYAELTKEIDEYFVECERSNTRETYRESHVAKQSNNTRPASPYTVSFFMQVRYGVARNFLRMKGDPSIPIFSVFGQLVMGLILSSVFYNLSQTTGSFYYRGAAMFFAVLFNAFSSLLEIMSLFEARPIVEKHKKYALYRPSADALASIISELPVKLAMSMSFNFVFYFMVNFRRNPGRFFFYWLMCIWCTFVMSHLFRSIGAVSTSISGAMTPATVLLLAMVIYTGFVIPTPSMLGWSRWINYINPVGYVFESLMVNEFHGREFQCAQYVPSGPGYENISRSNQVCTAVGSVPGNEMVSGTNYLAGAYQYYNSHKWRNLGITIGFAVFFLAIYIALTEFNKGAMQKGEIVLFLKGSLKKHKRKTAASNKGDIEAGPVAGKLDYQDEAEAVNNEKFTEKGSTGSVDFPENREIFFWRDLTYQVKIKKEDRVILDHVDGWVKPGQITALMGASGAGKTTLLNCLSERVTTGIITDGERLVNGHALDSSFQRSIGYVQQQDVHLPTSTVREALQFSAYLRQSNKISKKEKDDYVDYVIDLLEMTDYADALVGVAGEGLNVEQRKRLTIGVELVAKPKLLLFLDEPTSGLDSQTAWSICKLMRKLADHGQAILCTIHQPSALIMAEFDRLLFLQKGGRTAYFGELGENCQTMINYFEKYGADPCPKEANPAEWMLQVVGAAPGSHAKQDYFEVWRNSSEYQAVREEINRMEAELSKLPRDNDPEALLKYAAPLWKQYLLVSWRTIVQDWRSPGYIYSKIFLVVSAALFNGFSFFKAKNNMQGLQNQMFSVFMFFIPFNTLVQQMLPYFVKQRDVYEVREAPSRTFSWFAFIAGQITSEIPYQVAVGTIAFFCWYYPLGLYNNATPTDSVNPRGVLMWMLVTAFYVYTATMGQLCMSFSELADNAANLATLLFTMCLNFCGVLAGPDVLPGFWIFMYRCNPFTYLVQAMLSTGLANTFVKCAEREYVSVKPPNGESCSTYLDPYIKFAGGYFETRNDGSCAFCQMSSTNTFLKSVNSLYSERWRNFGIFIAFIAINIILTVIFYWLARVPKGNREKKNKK

[7] = biological target: pCDR2 (ABC) efflux pump in S. cerevisiae YEM-37 (Candida albicans, UniProt P78595); assay: cell-based; type: cell-based, C. albicans
[8] = tested on: YEM 13 C. albicans BEN up; assay: microbe, parasite or virus in culture; type: cell-based; details: YEM 13, 24 hrs, 80% inhibition; for MIC of compound in the presence of fluconazole (+): 1/8 × MIC of fluconazole
[9] = biological target: pCgCDR (ABC) efflux pump in S. cerevisiae YEM-39 (Candida glabrata, UniProt Q6FK23); assay: cell-based; type: cell-based, C. glabrata
pCgCDR (ABC) efflux pump in S. cerevisiae YEM-39, sequence (Q6FK23 whole entry): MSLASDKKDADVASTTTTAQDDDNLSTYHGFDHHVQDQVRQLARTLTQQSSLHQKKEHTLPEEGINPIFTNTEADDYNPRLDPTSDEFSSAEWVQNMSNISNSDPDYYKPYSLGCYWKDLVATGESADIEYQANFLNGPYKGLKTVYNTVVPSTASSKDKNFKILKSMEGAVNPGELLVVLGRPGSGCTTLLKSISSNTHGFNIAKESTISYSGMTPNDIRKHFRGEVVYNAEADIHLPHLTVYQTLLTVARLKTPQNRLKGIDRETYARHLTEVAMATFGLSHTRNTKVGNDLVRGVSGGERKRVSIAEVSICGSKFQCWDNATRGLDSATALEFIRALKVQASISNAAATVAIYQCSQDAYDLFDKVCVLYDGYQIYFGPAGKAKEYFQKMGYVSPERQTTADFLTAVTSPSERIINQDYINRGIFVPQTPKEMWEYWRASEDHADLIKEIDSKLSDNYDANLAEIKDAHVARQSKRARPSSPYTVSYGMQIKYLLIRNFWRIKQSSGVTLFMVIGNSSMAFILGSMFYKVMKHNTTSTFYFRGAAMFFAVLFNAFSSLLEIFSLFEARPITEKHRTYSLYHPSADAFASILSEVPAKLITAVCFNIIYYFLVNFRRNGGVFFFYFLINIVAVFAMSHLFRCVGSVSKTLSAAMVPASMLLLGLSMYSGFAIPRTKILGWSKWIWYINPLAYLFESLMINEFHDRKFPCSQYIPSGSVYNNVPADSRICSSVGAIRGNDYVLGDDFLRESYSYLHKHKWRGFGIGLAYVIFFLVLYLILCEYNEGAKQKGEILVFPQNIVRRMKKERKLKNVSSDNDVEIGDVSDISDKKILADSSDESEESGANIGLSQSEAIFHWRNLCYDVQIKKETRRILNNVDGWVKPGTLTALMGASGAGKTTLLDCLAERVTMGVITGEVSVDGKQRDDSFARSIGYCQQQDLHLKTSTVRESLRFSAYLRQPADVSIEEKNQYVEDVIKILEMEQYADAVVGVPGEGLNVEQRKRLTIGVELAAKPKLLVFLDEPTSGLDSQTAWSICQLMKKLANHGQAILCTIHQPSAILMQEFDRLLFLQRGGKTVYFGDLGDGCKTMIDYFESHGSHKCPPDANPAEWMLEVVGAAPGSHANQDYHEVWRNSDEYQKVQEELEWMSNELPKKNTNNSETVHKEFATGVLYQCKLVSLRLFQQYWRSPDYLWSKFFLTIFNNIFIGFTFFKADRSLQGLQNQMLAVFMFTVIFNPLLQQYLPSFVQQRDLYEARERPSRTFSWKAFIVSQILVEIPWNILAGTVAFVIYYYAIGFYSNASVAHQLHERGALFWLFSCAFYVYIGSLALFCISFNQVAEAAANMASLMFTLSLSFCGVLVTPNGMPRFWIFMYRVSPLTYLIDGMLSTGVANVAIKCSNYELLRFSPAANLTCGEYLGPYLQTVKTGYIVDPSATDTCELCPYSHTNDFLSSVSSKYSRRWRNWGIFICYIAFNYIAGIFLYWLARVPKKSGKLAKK

[10] = tested on: pCgBEN (MF) efflux pump in S. cerevisiae YEM-40; type: cell-based, C. glabrata
[11] = tested on: YEM 15 C. albicans, CDR1CDR2 up; assay: microbe, parasite or virus in culture; type: cell-based; details: YEM 15, 24 hrs, 80% inhibition; for MIC of compound in the presence of fluconazole (+): 1/8 × MIC of fluconazole
[12] = tested on: C. glabrata YEM-17 (CgCDR overexpressor); assay: microbe, parasite or virus in culture; type: cell-based; details: Nakaseomyces glabratus
C. krusei YEM-71 = assay: Broth dilution checkerboard, azoles and terbinafine with milbemycin α9 (Table 8); type: cell-based; details: Pichia kudriavzevii, YEM71, YEM-71, alone
[13] = tested on: C. albicans YEM-15 (CDR1 & CDR2 overexpressor); assay: microbe, parasite or virus in culture; type: cell-based; details: Candida albicans
[14] = YEM-40 pCgBEN, fluconazole fixed at FLUhalf 2.8

Compound | MIC of compound in the presence of fluconazole (+) [1] | MIC of compound in the absence of fluconazole (−) [1] | MIC of compound in the presence of fluconazole (+) [3] | MIC of compound in the absence of fluconazole (−) [3] | MIC of compound in the absence of fluconazole (−) (YEM 51 C. glabrata wt; YEM 51, 24 hrs, 80% inhibition) | MIC of compound in the absence of fluconazole (−) (YEM 30 C. albicans wt; YEM 30, 24 hrs, 80% inhibition) | MIC of compound in the absence of fluconazole (−) (YEM 53 C. krusei; YEM 53, 24 hrs, 80% inhibition) | MIC of compound in the presence of fluconazole (+) [5] | MIC of compound in the absence of fluconazole (−) [5] | FEPI MIC with itraconazole, 60% Inh (Aspergillus fumigatus; 60% inhibition) | FEPI MIC with itraconazole, 80% Inh (Aspergillus fumigatus; 80% inhibition) | FEPI MIC with ketoconazole, 60% Inh (Aspergillus fumigatus; 60% inhibition) | FEPI MIC with ketoconazole, 80% Inh (Aspergillus fumigatus; 80% inhibition) | FEPI MIC (alone) (Aspergillus fumigatus; 80% inhibition) | MIC of compound in the presence of fluconazole (+) [8] | MIC of compound in the absence of fluconazole (−) [8] | MIC of compound in the presence of fluconazole (+) [11] | MIC of compound in the absence of fluconazole (−) [11] | IC50 [2] | MIC of compound in the presence of fluconazole (+) (YEM 51 C. glabrata wt) | other results
5-Keto-8-deoxymilbemycin β1 [Compound 22] | > 64 µg/mL | > 64 µg/mL | > 64 µg/mL | > 64 µg/mL | > 64 µg/mL | > 64 µg/mL | > 64 µg/mL | > 64 µg/mL | > 64 µg/mL | >64 | >64 | ≦0.063 | ≦0.063 | >64 | > 64 µg/mL | > 64 µg/mL | ≦0.03 | > 64 µg/mL |  |  | FEPIhalf (concentration needed to reduce activity of efflux pump by 50%) ([2]; YEM-2 pBEN, fluconazole fixed at FLUhalf 5.6): >64; FEPIhalf (concentration needed to reduce activity of efflux pump by 50%) ([4]; YEM-38 pFLU, fluconazole fixed at FLUhalf 2): >64; MIC of compound in the presence of fluconazole (+) (YEM 51 C. glabrata wt; YEM 51, 1/8 × MIC of fluconazole, 24 hrs, 80% inhibition): > 64 µg/mL; MIC of compound in the presence of fluconazole (+) (YEM 30 C. albicans wt; YEM 30, 1/8 × MIC of fluconazole, 24 hrs, 80% inhibition): ≦0.03; MIC of compound in the presence of fluconazole (+) (YEM 53 C. krusei; YEM 53, 1/8 × MIC of fluconazole, 24 hrs, 80% inhibition): 8 µg/mL; FEPI MIC with fluconazole, 60% Inh (Aspergillus fumigatus; fluconazole 32 μg/ml (1/4 MIC), 60% inhibition): >64; FEPI MIC with fluconazole, 80% Inh (Aspergillus fumigatus; fluconazole 32 μg/ml (1/4 MIC), 80% inhibition): >64; FEPIhalf (concentration needed to reduce activity of efflux pump by 50%) ([6]; YEM-1 pCDRI, fluconazole fixed at FLUhalf 5.6): <0.06; FEPIhalf (concentration needed to reduce activity of efflux pump by 50%) ([7]; YEM-37 pCDR2, fluconazole fixed at FLUhalf 1): 1; FEPIhalf (concentration needed to reduce activity of efflux pump by 50%) ([9]; YEM-39 pCgCDR, fluconazole fixed at FLUhalf 4): 64; FEPIhalf (concentration needed to reduce activity of efflux pump by 50%) [10]: >64
CC1=C[C@H]2C(=O)O[C@H]3C[C@@H](C/C=C(\C)C[C@@H](C)/C=C/C=C4\CO[C@H]([C@@H]1O)[C@@]42O)O[C@@]1(CC[C@H](C)[C@@H](C)O1)C3 [Compound 3, Milbemycin α1] | 8 µg/mL | 8 µg/mL | 4 µg/mL | > 64 µg/mL | > 64 µg/mL | > 64 µg/mL | > 64 µg/mL | > 64 µg/mL | > 64 µg/mL | 8 | 16 | ≦0.063 | ≦0.063 | >64 | 32 µg/mL | > 64 µg/mL | ≦0.03 | > 64 µg/mL | 30.3 µM | 16 µg/mL | MIC of compound in the presence of fluconazole (+) (YEM 30 C. albicans wt): ≦0.03; MIC of compound in the presence of fluconazole (+) (YEM 53 C. krusei): 0.06 µg/mL; FEPI MIC with fluconazole, 60% Inh (Aspergillus fumigatus): 2; FEPI MIC with fluconazole, 80% Inh (Aspergillus fumigatus): >64; IC50 [6]: < 0.113 µM; IC50 [7]: 0.473 µM; IC50 [9]: 15.1 µM; FEPIhalf (concentration needed to reduce activity of efflux pump by 50%) [10, 14]: 32
CO[C@@H]1C(C)=C[C@H]2C(=O)O[C@H]3C[C@@H](C/C=C(\C)C[C@@H](C)/C=C/C=C4\CO[C@H]1[C@@]42O)O[C@@]1(CC[C@H](C)[C@@H](C)O1)C3 [Compound 4, Milbemycin α2] | 64 µg/mL | > 64 µg/mL | 2 µg/mL | > 64 µg/mL | > 64 µg/mL | > 64 µg/mL | > 64 µg/mL | > 64 µg/mL | > 64 µg/mL | 2 | >64 | 0.5 | 0.5 | >64 | > 64 µg/mL | > 64 µg/mL | ≦0.03 | > 64 µg/mL | > 118 µM | 4 µg/mL | IC50 [4]: > 118 µM; MIC of compound in the presence of fluconazole (+) (YEM 30 C. albicans wt): ≦0.03; MIC of compound in the presence of fluconazole (+) (YEM 53 C. krusei): 8 µg/mL; FEPI MIC with fluconazole, 60% Inh (Aspergillus fumigatus): 1; FEPI MIC with fluconazole, 80% Inh (Aspergillus fumigatus): >64; IC50 [6]: 0.23 µM; IC50 [7]: 0.461 µM; IC50 [9]: 7.37 µM; FEPIhalf (concentration needed to reduce activity of efflux pump by 50%) [10, 14]: >64
CC[C@H]1O[C@]2(CC[C@@H]1C)C[C@@H]1C[C@@H](C/C=C(\C)C[C@@H](C)/C=C/C=C3\CO[C@@H]4[C@H](O)C(C)=C[C@@H](C(=O)O1)[C@]34O)O2 [Compound 7, Milbemycin α3] | > 64 µg/mL | > 64 µg/mL | > 64 µg/mL | > 64 µg/mL | > 64 µg/mL | > 64 µg/mL | > 64 µg/mL | > 64 µg/mL | > 64 µg/mL | >64 | >64 | ≦0.063 | ≦0.063 | >64 | > 64 µg/mL | > 64 µg/mL | 0.125 µg/mL | > 64 µg/mL | 29.5 µM | > 64 µg/mL | IC50 [4]: > 118 µM; MIC of compound in the presence of fluconazole (+) (YEM 30 C. albicans wt): ≦0.03; MIC of compound in the presence of fluconazole (+) (YEM 53 C. krusei): 16 µg/mL; FEPI MIC with fluconazole, 60% Inh (Aspergillus fumigatus): >64; FEPI MIC with fluconazole, 80% Inh (Aspergillus fumigatus): >64; IC50 [6]: 0.921 µM; IC50 [7]: 14.7 µM; IC50 [9]: 29.5 µM; FEPIhalf (concentration needed to reduce activity of efflux pump by 50%) [10, 14]: >64
CCC(C)n1ncn(-c2ccc(N3CCN(c4ccc(OCC5COC(Cn6cncn6)(c6ccc(Cl)cc6Cl)O5)cc4)CC3)cc2)c1=O (stereo not shown) [Itraconazole, itraconazole, reference compound] |  |  |  |  |  |  |  |  |  |  |  |  |  |  |  |  |  |  |  |  | MIC ([12]; read-out: Itraconazole MIC): 128 µg/mL (≈ 181 µM); MIC (C. krusei YEM-71; read-out: Itraconazole MIC): 0.5 µg/mL; MIC ([13]; read-out: Itraconazole MIC): 0.5 µg/mL (≈ 0.709 µM)
CC(=O)N1CCN(c2ccc(OCC3COC(Cn4ccnc4)(c4ccc(Cl)cc4Cl)O3)cc2)CC1 (stereo not shown) [Ketoconazole, ketoconazole, reference compound] |  |  |  |  |  |  |  |  |  |  |  |  |  |  |  |  |  |  |  |  | MIC ([12]; read-out: Ketoconazole MIC): 2 µg/mL (≈ 3.76 µM); MIC (C. krusei YEM-71; read-out: Ketoconazole MIC): 2 µg/mL; MIC ([13]; read-out: Ketoconazole MIC): 1 µg/mL (≈ 1.88 µM)

Reference: patent publication US6495591B1, “Fungal efflux pump inhibitors” (Essential Therapeutics, Inc., priority 1997, dated 2002)
